Assay results as given in PubChem BioAssay AID1963441 (Molecular Pharmacology Branch, DTP, NCI, 2024).

Tested on: NCI-H1876 complex spheroid growth, % test/control
Test: Anticancer human tumor NCI-H1876 cell line growth inhibition [Asc];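 further: compound exposure lasted 7 days starting three days after seeding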;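 on viability, T/C: 100% = DMSO vehicle control wells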
Conditions: for IC50: curve of first compound; for viability, T/C: stronger effect = lower value
Procedure, shortened: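 Stromal components (HUVEC and hMSC) are co-assembled with the cancer cells into multicellular spheroids. Drugs are then added singly or paired, at concentrations falling by half-log increments from a clinically achievable maximum, capped at 10 microM without known Cmax.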

[1] = second compound 0.00949 µM, first compound 0.0316 µM
[2] = second compound 0.00949 µM, first compound 0.1 µM
[3] = second compound 0.00949 µM, first compound 0.316 µM
[4] = second compound 0.00949 µM, first compound 1 µM
[5] = second compound 0.00949 µM, first compound 3.16 µM
[6] = second compound 0.00949 µM, first compound 10 µM
[7] = second compound 0.03 µM, first compound 0.0316 µM
[8] = second compound 0.03 µM, first compound 0.1 µM
[9] = second compound 0.03 µM, first compound 0.316 µM
[10] = second compound 0.03 µM, first compound 1 µM
[11] = second compound 0.03 µM, first compound 3.16 µM
[12] = second compound 0.03 µM, first compound 10 µM
[13] = second compound 0.0949 µM, first compound 0.0316 µM
[14] = second compound 0.0949 µM, first compound 0.1 µM
[15] = second compound 0.0949 µM, first compound 0.316 µM
[16] = second compound 0.0949 µM, first compound 1 µM
[17] = second compound 0.0949 µM, first compound 3.16 µM
[18] = second compound 0.0949 µM, first compound 10 µM
[19] = second compound 0.3 µM, first compound 0.0316 µM
[20] = second compound 0.3 µM, first compound 0.1 µM
[21] = second compound 0.3 µM, first compound 0.316 µM
[22] = second compound 0.3 µM, first compound 1 µM
[23] = second compound 0.3 µM, first compound 3.16 µM
[24] = second compound 0.3 µM, first compound 10 µM
[25] = second compound 0.949 µM, first compound 0.0316 µM
[26] = second compound 0.949 µM, first compound 0.1 µM
[27] = second compound 0.949 µM, first compound 0.316 µM
[28] = second compound 0.949 µM, first compound 1 µM
[29] = second compound 0.949 µM, first compound 3.16 µM
[30] = second compound 0.949 µM, first compound 10 µM
[31] = second compound 3 µM, first compound 0.0316 µM
[32] = second compound 3 µM, first compound 0.1 µM
[33] = second compound 3 µM, first compound 0.316 µM
[34] = second compound 3 µM, first compound 1 µM
[35] = second compound 3 µM, first compound 3.16 µM
[36] = second compound 3 µM, first compound 10 µM

C=C(F)C(=O)N1CCN(c2nc(OCC3CCCN3C)nc3c2CCN(c2cccc4cccc(Cl)c24)C3)CC1CC#N (stereo unspecified) + CCN1C(C(=O)NC23CCC(C(=O)O)(CC2)CC3)C(c2cccc(Cl)c2F)C2(C(=O)Nc3cc(Cl)ccc32)C12CCCCC2
IC50 (second compound 0.00949 µM): 6.65 µM
IC50 (second compound 0.03 µM): 6.95 µM
IC50 (second compound 0.0949 µM): 6.91 µM
IC50 (second compound 0.3 µM): 6.79 µM
IC50 (second compound 0.949 µM): 6.4 µM
IC50 (second compound 3 µM): 5.67 µM
viability, T/C [1]: 93.6%
viability, T/C [2]: 102%
viability, T/C [3]: 102%
viability, T/C [4]: 107%
viability, T/C [5]: 107%
viability, T/C [6]: 21.5%
viability, T/C [7]: 104%
viability, T/C [8]: 108%
viability, T/C [9]: 109%
viability, T/C [10]: 110%
viability, T/C [11]: 106%
viability, T/C [12]: 24%
viability, T/C [13]: 107%
viability, T/C [14]: 99.3%
viability, T/C [15]: 101%
viability, T/C [16]: 98.5%
viability, T/C [17]: 101%
viability, T/C [18]: 26%
viability, T/C [19]: 104%
viability, T/C [20]: 92.1%
viability, T/C [21]: 99.3%
viability, T/C [22]: 110%
viability, T/C [23]: 111%
viability, T/C [24]: 22.9%
viability, T/C [25]: 111%
viability, T/C [26]: 107%
viability, T/C [27]: 108%
viability, T/C [28]: 116%
viability, T/C [29]: 109%
viability, T/C [30]: 12.7%
viability, T/C [31]: 109%
viability, T/C [32]: 109%
viability, T/C [33]: 110%
viability, T/C [34]: 112%
viability, T/C [35]: 93.8%
viability, T/C [36]: 7.68%

C=CC(=O)N1CCN(c2nc(=O)n(-c3c(C)ccnc3C(C)C)c3nc(-c4c(O)cccc4F)c(F)cc23)C(C)C1 (stereo unspecified) + CCN1C(C(=O)NC23CCC(C(=O)O)(CC2)CC3)C(c2cccc(Cl)c2F)C2(C(=O)Nc3cc(Cl)ccc32)C12CCCCC2
IC50 (second compound 0.00949 µM): > 10 µM
IC50 (second compound 0.03 µM): > 10 µM
IC50 (second compound 0.0949 µM): > 10 µM
IC50 (second compound 0.3 µM): > 10 µM
IC50 (second compound 0.949 µM): > 10 µM
IC50 (second compound 3 µM): > 10 µM
viability, T/C [1]: 93.5%
viability, T/C [2]: 90.4%
viability, T/C [3]: 101%
viability, T/C [4]: 108%
viability, T/C [5]: 118%
viability, T/C [6]: 106%
viability, T/C [7]: 98.2%
viability, T/C [8]: 101%
viability, T/C [9]: 104%
viability, T/C [10]: 103%
viability, T/C [11]: 110%
viability, T/C [12]: 107%
viability, T/C [13]: 96.8%
viability, T/C [14]: 93.4%
viability, T/C [15]: 107%
viability, T/C [16]: 106%
viability, T/C [17]: 117%
viability, T/C [18]: 107%
viability, T/C [19]: 103%
viability, T/C [20]: 106%
viability, T/C [21]: 115%
viability, T/C [22]: 114%
viability, T/C [23]: 114%
viability, T/C [24]: 109%
viability, T/C [25]: 118%
viability, T/C [26]: 115%
viability, T/C [27]: 104%
viability, T/C [28]: 114%
viability, T/C [29]: 118%
viability, T/C [30]: 112%
viability, T/C [31]: 112%
viability, T/C [32]: 99.6%
viability, T/C [33]: 96.7%
viability, T/C [34]: 109%
viability, T/C [35]: 114%
viability, T/C [36]: 107%

COc1c(OCCCN2CCOCC2)ccc2c3n(c(=NC(=O)c4cnc(N)nc4)nc12)CCN3 + CCN1C(C(=O)NC23CCC(C(=O)O)(CC2)CC3)C(c2cccc(Cl)c2F)C2(C(=O)Nc3cc(Cl)ccc32)C12CCCCC2
IC50 (second compound 0.00949 µM): 0.719 µM
IC50 (second compound 0.03 µM): 0.741 µM
IC50 (second compound 0.0949 µM): 0.69 µM
IC50 (second compound 0.3 µM): 0.718 µM
IC50 (second compound 0.949 µM): 0.614 µM
IC50 (second compound 3 µM): 0.543 µM
viability, T/C (second compound 0.00949 µM, first compound 0.00316 µM): 96.8%
viability, T/C (second compound 0.00949 µM, first compound 0.01 µM): 93.6%
viability, T/C [1]: 101%
viability, T/C [2]: 72.7%
viability, T/C [3]: 66.4%
viability, T/C [4]: 44%
viability, T/C (second compound 0.03 µM, first compound 0.00316 µM): 133%
viability, T/C (second compound 0.03 µM, first compound 0.01 µM): 96%
viability, T/C [7]: 94.2%
viability, T/C [8]: 70.6%
viability, T/C [9]: 59.8%
viability, T/C [10]: 45.8%
viability, T/C (second compound 0.0949 µM, first compound 0.00316 µM): 99.3%
viability, T/C (second compound 0.0949 µM, first compound 0.01 µM): 96.2%
viability, T/C [13]: 90.8%
viability, T/C [14]: 77.5%
viability, T/C [15]: 67.3%
viability, T/C [16]: 42.1%
viability, T/C (second compound 0.3 µM, first compound 0.00316 µM): 96.8%
viability, T/C (second compound 0.3 µM, first compound 0.01 µM): 96%
viability, T/C [19]: 93%
viability, T/C [20]: 70.6%
viability, T/C [21]: 65.9%
viability, T/C [22]: 44.1%
viability, T/C (second compound 0.949 µM, first compound 0.00316 µM): 108%
viability, T/C (second compound 0.949 µM, first compound 0.01 µM): 105%
viability, T/C [25]: 92.4%
viability, T/C [26]: 75.4%
viability, T/C [27]: 58.7%
viability, T/C [28]: 43.9%
viability, T/C (second compound 3 µM, first compound 0.00316 µM): 106%
viability, T/C (second compound 3 µM, first compound 0.01 µM): 103%
viability, T/C [31]: 81.2%
viability, T/C [32]: 80.1%
viability, T/C [33]: 64.7%
viability, T/C [34]: 35.7%
